Source: patent US6337074B1, “Anti-herpesviral agent” (priority 1996, dated 2002)
Where two headings read alike, the source gives them in different places. No end group written: not given here.

Columns and labels:
POL/UL8 interaction [1] = target: T1, POL/UL8 interaction (Human herpesvirus 1, UniProt P04293); assay: biochemical; format: binding, HSV-1; settings: for Inhibition of the POL/UL8 interaction (in words): FIG. 6
T1 construct: made in house; host or cells: Spodoptera frugiperda (Sf) cells infected with recombinant baculoviruses AcUL30 and AcUL8
T1 sequence (P04293 whole entry): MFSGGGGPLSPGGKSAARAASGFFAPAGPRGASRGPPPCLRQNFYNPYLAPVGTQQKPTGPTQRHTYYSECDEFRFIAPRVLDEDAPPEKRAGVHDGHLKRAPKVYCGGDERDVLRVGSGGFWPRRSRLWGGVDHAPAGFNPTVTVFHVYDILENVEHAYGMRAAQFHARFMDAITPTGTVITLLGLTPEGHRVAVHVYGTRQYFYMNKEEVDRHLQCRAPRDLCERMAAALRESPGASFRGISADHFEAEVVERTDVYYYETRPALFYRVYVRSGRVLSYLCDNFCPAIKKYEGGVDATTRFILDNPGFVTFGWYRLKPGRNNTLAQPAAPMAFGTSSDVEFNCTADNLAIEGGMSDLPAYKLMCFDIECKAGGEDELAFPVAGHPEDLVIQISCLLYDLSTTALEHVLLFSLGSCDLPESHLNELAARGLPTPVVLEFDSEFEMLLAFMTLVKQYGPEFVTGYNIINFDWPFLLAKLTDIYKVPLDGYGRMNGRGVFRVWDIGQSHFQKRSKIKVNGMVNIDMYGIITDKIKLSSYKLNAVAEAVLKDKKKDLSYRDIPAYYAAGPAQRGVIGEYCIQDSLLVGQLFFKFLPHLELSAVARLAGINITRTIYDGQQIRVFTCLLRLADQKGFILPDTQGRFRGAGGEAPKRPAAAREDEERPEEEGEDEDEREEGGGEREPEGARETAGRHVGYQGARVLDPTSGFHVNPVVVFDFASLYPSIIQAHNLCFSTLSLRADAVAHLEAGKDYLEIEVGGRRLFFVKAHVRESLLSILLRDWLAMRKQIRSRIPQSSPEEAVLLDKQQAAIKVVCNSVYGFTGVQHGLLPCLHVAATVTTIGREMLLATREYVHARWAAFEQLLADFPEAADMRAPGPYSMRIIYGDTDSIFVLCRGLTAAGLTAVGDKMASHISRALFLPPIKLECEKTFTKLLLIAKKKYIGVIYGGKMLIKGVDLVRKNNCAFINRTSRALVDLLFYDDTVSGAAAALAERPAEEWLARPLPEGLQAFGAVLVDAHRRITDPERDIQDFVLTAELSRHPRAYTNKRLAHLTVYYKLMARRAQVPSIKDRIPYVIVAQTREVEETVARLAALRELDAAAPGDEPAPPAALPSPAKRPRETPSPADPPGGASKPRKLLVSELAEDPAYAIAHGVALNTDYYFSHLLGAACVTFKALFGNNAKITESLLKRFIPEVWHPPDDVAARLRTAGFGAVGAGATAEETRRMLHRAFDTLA
From the text: POL/UL8 interaction assays. ELISA assays, similar to that described for POL/UL42 (Marsden et al., 1994) were established with purified POL and UL8 proteins. POL was extracted from Sf cells infected with recombinant baculovirus AcUL30 and purified as described by Gottlieb et al. (1990) with minor modifications (Marsden et al., 1994). UL8 protein was extracted from Sf cells infected with recombinant baculovirus AcUL8 and purified as described by Parry et al., (1993) but substituting phenyl-Sepharose by hydroxylapatite chromatography (Dodson and Lehman, 1991). Both proteins were diluted in PBS to the required concentrations. For the first assay, microtiter wells were coated overnight with 0.02 μg of purified POL and blocked with 100 μl of 2% BSA in PBS for 1 h at 37° C. After blocking, the plates were washed extensively with PBS containing 0.3% Tween 20 and blotted dry. Then 50 μl of purified UL8, at the concentrations indicated in the text, were added to each well and incubated for 1 h at 37° C. […] The wells were again extensively washed and bound MAb was detected with 50 μl/well of HRP-conjugated goat anti-mouse IgG (Sigma) diluted 1:500 in PBS containing 2% FCS and chromogenic substrate ABTS. For the second assay, POL and UL8 proteins were added in the reverse order. Microtitre wells were coated overnight with 0.02 to 0.04 μg of purified UL8 protein and bound POL was detected with a POL-specific MAB 13185 (Marsden et al., 1996) diluted 1:100. Other aspects of the two assays were identical. MAbs, diluted in PBS plus 2% fetal calf serum, and peptides, diluted in 100 mM Tris-HCl (pH 8.0) plus 0.1% Tween 20, were added to the interaction assay as described in the text.
Inhibition of the POL/UL8 interaction by UL8 peptides. […] Peptides were dissolved in 100 mM Tris-HCl (pH 8.0) plus 0.1% Tween 20 at different concentrations and incubated with POL for 15 min to allow the peptides to bind to POL. The mixtures were then added to microtiter wells coated with UL8 and the amount of POL bound was determined after 1 h. […] The concentration of each peptide required to reduce POL binding by 50% (the IC50 value) was determined in at least 3, and on average 5, independent experiments.
The jumbled peptide, 7J, was made by linking residues from alternately the N- and C-termini of peptide 7. Thus, if the order of the 20 residues in peptide 7 is represented as 1, 2, 3, . . . 18, 19, 20, that in 7J was 1, 20, 2, 19, . . . […].
We next investigated whether the preincubation step was necessary.

[2] = Solubility of peptides in assay buffer; format: physicochemical; settings: 100 mM Tris-HCl (pH 8.0) plus 0.1% Tween 20
POL/UL8 interaction [3] = target: T1, POL/UL8 interaction; assay: biochemical; format: binding, HSV-1; settings: IC50 value for inhibition of the POL/UL8 interaction, FIG. 8; no pre-incubation, peptide added a few seconds after POL
UL54/UL102 interaction = target: T2, UL54/UL102 interaction (Human cytomegalovirus, UniProt P08546); assay: UL54/UL102 interaction ELISA, inhibition by UL102 peptides; format: binding, HCMV
T2 construct: made in house; host or cells: Spodoptera frugiperda (Sf) cells infected with recombinant baculoviruses AcUL54 and AcUL102
T2 sequence (P08546 whole entry): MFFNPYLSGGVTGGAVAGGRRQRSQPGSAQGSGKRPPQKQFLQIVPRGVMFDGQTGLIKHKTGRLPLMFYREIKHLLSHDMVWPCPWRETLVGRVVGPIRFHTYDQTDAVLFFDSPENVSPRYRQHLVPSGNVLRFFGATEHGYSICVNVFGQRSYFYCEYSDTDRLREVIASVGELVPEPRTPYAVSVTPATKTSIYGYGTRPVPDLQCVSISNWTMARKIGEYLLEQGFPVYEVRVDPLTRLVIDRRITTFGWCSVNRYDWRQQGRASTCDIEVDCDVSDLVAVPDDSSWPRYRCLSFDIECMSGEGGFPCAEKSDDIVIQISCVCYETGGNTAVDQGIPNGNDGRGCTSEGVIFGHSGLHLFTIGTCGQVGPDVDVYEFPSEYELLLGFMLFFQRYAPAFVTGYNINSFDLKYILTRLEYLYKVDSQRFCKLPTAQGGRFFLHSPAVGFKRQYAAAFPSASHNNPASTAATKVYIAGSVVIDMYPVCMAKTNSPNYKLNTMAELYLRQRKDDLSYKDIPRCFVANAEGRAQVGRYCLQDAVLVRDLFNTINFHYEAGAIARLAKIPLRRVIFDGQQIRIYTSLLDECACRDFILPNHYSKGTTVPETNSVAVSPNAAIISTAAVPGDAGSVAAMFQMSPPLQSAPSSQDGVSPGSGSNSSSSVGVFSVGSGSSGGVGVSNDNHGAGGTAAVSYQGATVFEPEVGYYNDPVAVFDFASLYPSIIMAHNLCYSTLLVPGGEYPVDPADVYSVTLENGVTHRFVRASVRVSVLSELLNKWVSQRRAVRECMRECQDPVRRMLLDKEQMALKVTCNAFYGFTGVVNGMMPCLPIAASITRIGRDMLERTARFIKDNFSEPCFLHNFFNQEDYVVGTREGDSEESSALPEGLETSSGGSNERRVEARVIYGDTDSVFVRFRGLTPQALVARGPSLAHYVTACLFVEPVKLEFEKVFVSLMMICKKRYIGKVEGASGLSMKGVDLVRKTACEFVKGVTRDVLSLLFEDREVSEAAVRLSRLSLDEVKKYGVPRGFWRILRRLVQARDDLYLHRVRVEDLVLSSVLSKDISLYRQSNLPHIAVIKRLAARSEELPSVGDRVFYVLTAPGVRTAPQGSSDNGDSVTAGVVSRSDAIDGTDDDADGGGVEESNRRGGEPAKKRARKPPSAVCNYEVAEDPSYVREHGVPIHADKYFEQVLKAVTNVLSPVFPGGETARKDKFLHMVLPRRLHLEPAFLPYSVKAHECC
Description: UL54/UL102 interaction assays. ELISA assays, similar to those described for HSV-1 POL/UL8 (see Example 1 above) were established with purified HCMV UL54 and UL102 proteins. […] The wells were again extensively washed and bound antibody was detected with 50 μl/well of HRP-conjugated protein A (Sigma) diluted 1:500 in PBS containing 2% FCS. After further washes, chromogenic substrate ABTS was added.
Inhibition of the UL54/UL102 interaction by UL102 peptides. […] To do this, the peptides listed in Table 4 were tested for their ability to block the interaction of HCMV UL102 with HCMV UL54. […] The amount of UL54 bound was determined after 1 h by measuring the absorbance at 405 nm as described. The absorbance in the absence of any peptide, 1.061±0.033, was determined from six wells. The background absorbance in the absence of any UL54, 0.240±0.025, was also determined from six wells and was subtracted from all values. […] The concentration of each peptide required to reduce UL54-binding by 50% (the IC50 value) was determined and is listed in Table 4.

[4] = IC50 value for inhibition of the POL/UL8 interaction, experiment shown in FIG. 7, 15 min pre-incubation with POL

IVEFLKVGFGTEGGVWLVAG [Peptide 7J, reference compound]
IC50 (POL/UL8 interaction [1]): > 20 µM | IC50 (POL/UL8 interaction [1]; [4]): > 20 µM

IELVFTGVLAGVWGEGGKFV [Peptide 7]
IC50 (POL/UL8 interaction [1]): 2.3 ± 2.2 µM | Inhibition of the POL/UL8 interaction (in words) (POL/UL8 interaction [1]): markedly inhibitory | IC50 (POL/UL8 interaction [1]; IC50 value for inhibition of the POL/UL8 interaction, FIG. 8, peptide pre-incubated with POL for 15 min): ~1 µM | IC50 (POL/UL8 interaction [1]; [4]): ~1 µM | Solubility (in words) [2]: limited solubility | IC50 (POL/UL8 interaction [3]): ~1 µM

VLAGVWGEGGKFVYPFDDKMSFLFA [Peptide 3]
IC50 (POL/UL8 interaction [1]): > 250 µM

CC[C@H](C)[C@H](NC(=O)[C@@H]1CCCN1C(=O)[C@H](CCC(=O)O)NC(=O)[C@H](CCCCN)NC(=O)[C@H](CCC(=O)O)NC(=O)[C@H](CC(C)C)NC(=O)[C@H](CCC(N)=O)NC(=O)[C@H](Cc1ccc(O)cc1)NC(=O)[C@H](Cc1c[nH]c2ccccc12)NC(=O)[C@H](CC(C)C)NC(=O)[C@H](CCCCN)NC(=O)[C@@H](N)C(C)C)C(=O)N[C@H](C(=O)NCC(=O)N[C@@H](C)C(=O)O)C(C)C [Peptide RT85, reference compound]
IC50 (POL/UL8 interaction [1]): > 250 µM | IC50 (UL54/UL102 interaction): > 200 µM

TGVLAGVWGEGGKFVYPFDDKMSFLFA [Peptide 4]
IC50 (POL/UL8 interaction [1]): > 250 µM

TGVLAGVWGEGGKFV [Peptide 6]
IC50 (POL/UL8 interaction [1]): > 250 µM

VFTGVLAGVWGEGGKFVYPFDDKMSFLFA [Peptide 5]
IC50 (POL/UL8 interaction [1]): 66 ± 22 µM | Inhibition of the POL/UL8 interaction (in words) (POL/UL8 interaction [1]): markedly inhibitory | Solubility (in words) [2]: limited solubility

EILREIELVFTGVLA [Peptide 8]
IC50 (POL/UL8 interaction [1]): > 250 µM
